Values joined by “and” are separate entries in the source; they are usually repeats but may differ in a detail not shown here. Equal entries are not always repeated. Inconclusive results and toxic doses are left out.
Test system: P388 leukemia ip, CD2F1 mice, survival T/C
Assay: NCI In Vivo Anticancer Drug Screen. Data for tumor model P388 Leukemia (intraperitoneal) in CD2F1 (CDF1) mice
Conditions: endpoint: median survival time, higher = longer survival
In short: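 Mice carrying the transplanted tumor received test compound or vehicle. Survival was recorded in each group, and the value is the treated-group measurement divided by that of the vehicle-treated control group.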

[1] = dose: 50.0 mg/kg/injection, schedule: Q01DX009 (ip), vehicle: saline with Tween-80
[2] = dose: 100.0 mg/kg/injection, schedule: Q01DX009 (ip), vehicle: saline with Tween-80
[3] = dose: 100.0 mg/kg/injection, schedule: Q04DX003 (ip), vehicle: saline with Tween-80
[4] = dose: 200.0 mg/kg/injection, schedule: Q04DX003 (ip), vehicle: saline with Tween-80
[5] = dose: 400.0 mg/kg/injection, schedule: Q04DX003 (ip), vehicle: saline with Tween-80
[6] = dose: 50.0 mg/kg/injection, schedule: Q01DX009 (ip), vehicle: Klucel (hydroxypropylcellulose) (HPC)
[7] = dose: 200.0 mg/kg/injection, schedule: Q01DX009 (ip), vehicle: Klucel (hydroxypropylcellulose) (HPC)
[8] = dose: 50.0 mg/kg/injection, schedule: Q01DX005 (ip), vehicle: saline with Tween-80
[9] = dose: 100.0 mg/kg/injection, schedule: Q01DX005 (ip), vehicle: saline with Tween-80
[10] = dose: 200.0 mg/kg/injection, schedule: Q01DX005 (ip), vehicle: saline with Tween-80
[11] = dose: 200.0 mg/kg/injection, schedule: Q01DX009 (ip), vehicle: saline with Tween-80

Question: For `CS(=O)CC1=NC(=N)N=C1CS(C)=O` (stereo unspecified), which T/C (dose: 60.0 mg/kg/injection, schedule: Q01DX005 (ip), vehicle: saline) is on record?
Answer: The T/C was 100 % of control.

Question: What about the T/C (dose: 120.0 mg/kg/injection, schedule: Q01DX005 (ip), vehicle: saline) of the same compound?
Answer: Its T/C is 102 % of control.

Question: And the T/C (dose: 240.0 mg/kg/injection, schedule: Q01DX005 (ip), vehicle: saline)?
Answer: Its T/C is 100 % of control.

Question: What does the source list for `N#Cc1cc(Cl)ccc1[N+](=O)[O-]`?
Answer: T/C [1]: 102 % of control; T/C [2]: 103 % of control

Question: Which results are given for `C=CCCC1CC2CCCCN2O1` (stereo unspecified)?
Answer: T/C (dose: 61.25 mg/kg/injection, schedule: Q01DX009 (ip), vehicle: saline): 115 % of control; T/C (dose: 122.5 mg/kg/injection, schedule: Q01DX009 (ip), vehicle: saline): 103 % of control; T/C (dose: 245.0 mg/kg/injection, schedule: Q01DX009 (ip), vehicle: saline): 100 % of control

Question: What does the source list for `CCCCC(CC)C(=O)N1CCOCC1` (stereo unspecified)?
Answer: T/C [3]: 100 % of control; T/C [4]: 100 % of control; T/C [5]: 100 % of control

Question: Which T/C (dose: 12.5 mg/kg/injection, schedule: Q01DX009 (ip), vehicle: Klucel (hydroxypropylcellulose) (HPC)) does the source give for `CCCCCCCCSc1nc2ccc(N=Cc3ccccc3O)cc2s1` here?
Answer: Its T/C is 109 % of control.

Question: And the T/C (dose: 25.0 mg/kg/injection, schedule: Q01DX009 (ip), vehicle: Klucel (hydroxypropylcellulose) (HPC))?
Answer: The T/C was 94 % of control.

Question: What about the T/C [6] of the same compound?
Answer: The T/C was 90 % of control and 92 % of control.

Question: What about the T/C [7] of the same compound?
Answer: Its T/C is 91 % of control.

Question: Which T/C [6] does the source give for `NC(=O)Nc1ccc(Cc2ccc(NC(N)=O)cc2)cc1` here?
Answer: Its T/C is 94 % of control.

Question: What about the T/C (dose: 100.0 mg/kg/injection, schedule: Q01DX009 (ip), vehicle: Klucel (hydroxypropylcellulose) (HPC)) of the same compound?
Answer: The T/C was 94 % of control.

Question: What about the T/C [7] of the same compound?
Answer: Its T/C is 91 % of control.

Question: What does the source list for `COc1ccc(-c2oc(=O)cc(-c3ccccc3)c2-c2ccccc2)cc1`?
Answer: T/C [8]: 112 % of control; T/C [9]: 93 % of control; T/C [10]: 87 % of control

Question: How did the T/C [11] turn out when `CCCCCCCCCCCCCCC(O)C(=O)O` (stereo unspecified) was run?
Answer: The T/C was 89 % of control.

Question: How did the T/C [3] turn out when `COc1cc([N+](=O)[O-])cc(/C=C(\C)C2SC(C)(C)C(C)CN2C)c1O` (stereo unspecified) was run?
Answer: The T/C was 109 % of control.

Question: And the T/C [4]?
Answer: The T/C was 103 % of control.

Question: What about the T/C [5] of the same compound?
Answer: Its T/C is 100 % of control.

Question: Which T/C [1] does the source give for `Oc1c(Cl)cc(Cl)cc1C1CC(c2ccccc2Cl)=NN1c1ccccc1` (stereo unspecified) here?
Answer: Its T/C is 96 % of control.

Question: What about the T/C [2] of the same compound?
Answer: Its T/C is 95 % of control.

Question: And the T/C [11]?
Answer: Its T/C is 97 % of control.

Question: `O/N=C/C(Cl)=N\O` was tested. Which T/C (dose: 100.0 mg/kg/injection, schedule: Q04DX002 (ip), vehicle: saline with Tween-80) did it give?
Answer: The T/C was 91 % of control.

Question: What about the T/C (dose: 200.0 mg/kg/injection, schedule: Q04DX002 (ip), vehicle: saline with Tween-80) of the same compound?
Answer: The T/C was 90 % of control.

Question: What does the source list for `CS/C(=N/N=C/c1ccc2ccccc2n1)SS/C(=N/N=C\c1ccc2ccccc2n1)SC`?
Answer: T/C [8]: 88 % of control; T/C [9]: 91 % of control; T/C [10]: 104 % of control

Question: Which results are given for `CCOc1ccc(N=Nc2c(C)nn(C(=S)SC)c2OCC)cc1`?
Answer: T/C (dose: 60.0 mg/kg/injection, schedule: Q01DX005 (ip), vehicle: Klucel + Tween-80): 95 % of control; T/C (dose: 120.0 mg/kg/injection, schedule: Q01DX005 (ip), vehicle: Klucel + Tween-80): 95 % of control; T/C (dose: 240.0 mg/kg/injection, schedule: Q01DX005 (ip), vehicle: Klucel + Tween-80): 94 % of control

Question: For `CN(C)CCNCCN`, which T/C (dose: 50.0 mg/kg/injection, schedule: Q01DX005 (ip), vehicle: saline) is on record?
Answer: The T/C was 96 % of control.

Question: And the T/C (dose: 100.0 mg/kg/injection, schedule: Q01DX005 (ip), vehicle: saline)?
Answer: The T/C was 99 % of control.

Question: For `Oc1ccc2c3c1OC1C(=NN=C4CCC5(O)C6Cc7ccc(O)c8c7C5(CCN6CC5CC5)C4O8)CCC4(O)C(C2)N(CC2CC2)CCC314` (stereo unspecified), which T/C [8] is on record?
Answer: The T/C was 91 % of control.

Question: And the T/C [9]?
Answer: The T/C was 98 % of control.

Question: What about the T/C [10] of the same compound?
Answer: Its T/C is 99 % of control.
